These results are taken from patent publication US20260166162A1, “CARBON CHAIN SUBSTANCE FOR REGULATING TRANSMEMBRANE TRANSPORT AND FLUIDITY OF CELL MEMBRANES, AND PREPARATION AND USE THEREOF” (priority 2022, published 2026).

Like-named read-outs stand apart in the source and are kept apart here.

What all share (format): cell-based
The subject of one assay is 293T cells. The assay can be described thus: Cellular phagocytosis of DiD-loaded lipid vesicles (nano-drugs) by 293T cells (Example II-51, Table II-29). Particulars: 293T cells pretreated 4 h, DiD lipid vesicles 2 h, n=3, untreated control 226.46 ± 1.26.
The test system of assay [1] is SARS-CoV-2 pseudovirus (B.1.526.2).
Another assay concerns human pancreatic β-cells. The assay can be described thus: Insulin secretion from human islet β cells (ELISA of supernatant). The following applies: 6 h. In general terms: In an ELISA, binding on a coated surface is turned into a signal by an enzyme label.
For another assay, the system named is HIV pseudovirus (18A-41). The following applies: 293T cells pretreated 4 h, n=3.

Take `CCCCCC=CCC=CCCCCCCCC(=O)OC(C)C(N)C(=O)O` (stereo not drawn) [Threonine-LA]: the Fluorescence intensity is given as 100.46 ± 4.23 in the assay on 293T cells (2 nM); 64.18 ± 0.47 in the assay on 293T cells (5 nM); 43.39 ± 0.55 in the assay with 293T cells (10 nM); 45.68 ± 0.23 in the assay on 293T cells (50 nM); 54.37 ± 0.63 in the assay on 293T cells (100 nM); 412.90 ± 0.43 with 293T cells (1 uM). In addition, the figures for the Fluorescence intensity in the assay with 293T cells (10 uM), in the assay on 293T cells (50 uM) and in the assay with 293T cells (100 uM) were 507.63 ± 0.23, 64.86 ± 0.19 and 27.22 ± 0.16, respectively. The “Inhibition rate (%)” value in assay [1] (2 nM, n=3) is on record as 55.64 ± 1.68%; in assay [1] (5 nM, n=3), 71.66 ± 2.98%; in assay [1] (10 nM, n=3) it was 80.84 ± 4.59%; in assay [1] (50 nM, n=3), 79.83 ± 8.55%; in assay [1] (100 nM, n=3), 75.99 ± 2.66%; in assay [1] (1 μM, n=3) it was -82.33 ± 0.87%. For the same molecule, the “Inhibition rate (%)” value is given as -124.16 ± 0.47% in assay [1] (10 μM, n=3); 71.36 ± 0.48% in assay [1] (50 μM, n=3); 87.98 ± 0.55% in assay [1] (100 μM, n=3).
In the case of Adenosine monophosphate-lauroic acid, the “Insulin” value is 0.37 ng/mL in the assay with human pancreatic β-cells (2 nM); 0.38 ng/mL in the assay on human pancreatic β-cells (5 nM); 0.43 ng/mL in the assay with human pancreatic β-cells (10 nM); 0.49 ng/mL with human pancreatic β-cells (50 nM); 1.49 ng/mL with human pancreatic β-cells (50 μM); 1.53 ng/mL in the assay on human pancreatic β-cells (100 μM).
Consider Glucosamine-n-octanoic acid, for which the “Inhibition rate (%)” value in the assay with HIV pseudovirus (18A-41) (2 nM) is 22.59 ± 6.09%; in the assay on HIV pseudovirus (18A-41) (5 nM), 54.47 ± 2.09%; with HIV pseudovirus (18A-41) (10 nM), 78.34 ± 3.66%; in the assay on HIV pseudovirus (18A-41) (50 nM), 89.33 ± 3.65%; in the assay with HIV pseudovirus (18A-41) (100 nM), 88.76 ± 4.87%; in the assay on HIV pseudovirus (18A-41) (1 μM), -62.33 ± 3.93%. Also, the “Inhibition rate (%)” value is on record as -84.26 ± 6.61% in the assay with HIV pseudovirus (18A-41) (10 μM); 51.09 ± 9.38% in the assay with HIV pseudovirus (18A-41) (50 μM); 53.68 ± 6.07% in the assay with HIV pseudovirus (18A-41) (100 μM, negative value = promotes infection).
Consider Glucose-docosanedioic acid, for which the “Insulin” value is 0.25 ng/mL in the assay on human pancreatic β-cells (2 nM); 0.27 ng/mL in the assay with human pancreatic β-cells (5 nM); 0.41 ng/mL with human pancreatic β-cells (10 nM); 0.50 ng/mL in the assay on human pancreatic β-cells (50 nM); 1.41 ng/mL in the assay on human pancreatic β-cells (50 μM); 1.46 ng/mL in the assay on human pancreatic β-cells (100 μM).
On to Glucose-pentadecanedioic acid, for which the “Insulin” value worked out at 0.22 ng/mL in the assay on human pancreatic β-cells (2 nM); 0.23 ng/mL in the assay on human pancreatic β-cells (5 nM); 0.36 ng/mL in the assay with human pancreatic β-cells (10 nM); 0.43 ng/mL with human pancreatic β-cells (50 nM); 1.48 ng/mL in the assay on human pancreatic β-cells (50 μM); 1.52 ng/mL in the assay on human pancreatic β-cells (100 μM).
Take “Uridine diphosphate glucose-pentacosanoic acid [UDPGA-C25]”: the “Inhibition rate (%)” value in assay [1] (0.002 µM) was 46.04 ± 0.98%; in assay [1] (0.005 µM) it was 49.66 ± 0.58%; in assay [1] (0.01 µM) it was 48.66 ± 1.59%; in assay [1] (0.05 µM), 59.03 ± 1.25%; in assay [1] (0.1 µM), 88.64 ± 4.53%; in assay [1] (1 µM) it was -12.03 ± 0.83%. Further, the figures for the “Inhibition rate (%)” value in assay [1] (10 µM), in assay [1] (50 µM) and in assay [1] (100 µM) were -64.26 ± 0.59%, 71.36 ± 0.88% and 92.33 ± 0.73%, respectively.
Consider “cholylglycine-Ricinoleic acid [cholylglycine-C18-1-OH]”, for which the “Inhibition rate (%)” value in assay [1] (2 nM, n=3) was 72.59 ± 5.58%; in assay [1] (5 nM, n=3), 74.66 ± 1.25%; in assay [1] (10 nM, n=3) it was 78.34 ± 2.55%; in assay [1] (50 nM, n=3) it was 89.33 ± 2.25%; in assay [1] (100 nM, n=3), 88.76 ± 4.58%; in assay [1] (1 μM, n=3), -32.33 ± 0.57%. For the same molecule, the “Inhibition rate (%)” value in assay [1] (10 μM, n=3) is given as -54.26 ± 0.88%; in assay [1] (50 μM, n=3) it was 71.09 ± 0.58%; in assay [1] (100 μM, n=3) it was 73.68 ± 0.71%.
As for “cholyltaurine-tetradecanoic acid [cholyltaurine-C14]”, the “Inhibition rate (%)” value in assay [1] (2 nM, n=3) is 70.54 ± 3.20%; in assay [1] (5 nM, n=3), 79.66 ± 5.66%; in assay [1] (10 nM, n=3), 81.84 ± 4.57%; in assay [1] (50 nM, n=3), 80.88 ± 1.22%; in assay [1] (100 nM, n=3), 79.06 ± 2.22%; in assay [1] (1 μM, n=3), -94.23 ± 5.55%. For the same molecule, the “Inhibition rate (%)” value in assay [1] (10 μM, n=3) turned out to be 4.26 ± 0.95%; in assay [1] (50 μM, n=3), 67.55 ± 0.25%; in assay [1] (100 μM, n=3) it was 58.98 ± 0.44%.
